Here are results for 49 molecules from a melting point compilation (Tetko et al.).

In turn, `CNCCCc1cc(-c2ccccc2)n[nH]1` showed a melting point of 98 to 100 °C. With `FC(F)(F)Cc1nc2cc(Br)ccc2[nH]1`, the melting point was 139 to 141 °C.

With `N#CCc1c[nH]c2cc(F)ccc12`, the melting point is 52 to 54 °C.

`CCOC(=O)Cc1csc(NC(=O)OCC(F)(F)F)n1` returned a melting point of 120 to 122 °C.

As to `O=S(=O)(c1cccc(-c2nnc(S)n2Cc2ccc(F)cc2)c1)N1CCOCC1`, the melting point fell in the range of 231 to 233 °C.

`CCOc1ccc(-c2nnc(S)n2N)cc1` registered a melting point of 208 to 212 °C.

Take `O=C1CC(Cc2ccc(C(=O)O)cc2)C(=O)N1` (centres undefined): the melting point lay within 243 to 245 °C. Next, `O=C(O)CSCC(=O)c1ccccc1`: 95 to 97 °C; `Clc1ccc2[nH]c(C3CCCN3)nc2c1` (centres undefined): 124 to 126 °C; `CCCOc1ccc(C=CC(=O)O)cc1OCC`: 149 to 151 °C. With `O=C(O)c1cc(/C=C/c2ccc(OC(F)(F)F)cc2)nc2ccc(Br)cc12`, the melting point lay in the range of 311 to 313 °C. Consider `NNC(=O)Cc1nc(-c2ccccc2)cs1`, for which the melting point was in the range of 135 to 140 °C. In the case of `O=C(c1ccc(Cl)c(Cl)c1)N1CCNCC1`, the melting point lay within 74 to 76 °C. `COc1cc(C=O)ccc1OCC(F)(F)F` showed a melting point of 66 to 68 °C. Regarding `O=C(O)CNS(=O)(=O)C=Cc1ccccc1`, the melting point was in the range of 80 to 82 °C.

In turn, `Cn1ccc(C(=O)CCl)c1` yielded a melting point of 49 to 51 °C.

As to `Cn1cnnc1S(C)(=O)=O`, the melting point lay within 132 to 134 °C.

In the case of `NCC(O)COc1ccc2c(c1)CCC(=O)N2` (centres undefined), the melting point was 103 to 105 °C.

Molecule `COc1cc(CC#N)ccc1SC(F)F` yielded a melting point of 41 to 43 °C.

In turn, `CCC(=CC(=O)O)c1cccc(Cl)c1` registered a melting point of 79 to 81 °C.

`Cc1ccc(C)c(N2N=C(C(=O)O)CCC2=O)c1` returned a melting point of 149 to 151 °C. As to `CN(CC(=O)O)c1nc2ccccc2s1`, the melting point was in the range of 165 to 167 °C. To `c1cnc2c(c1)NCCO2` belongs 111 to 113 °C. To `O=C(O)CNC(=O)C(F)(F)F` belongs 152 to 154 °C; to `CS(=O)(=O)c1cc(N)cc(C(=O)O)c1`, 257 to 259 °C; to `CCOc1cc(C(=O)O)ccc1OCc1cccnc1`, 185 to 187 °C. The molecule `CN1C(=O)CCc2cc(N)ccc21` displayed a melting point of 101 to 103 °C. To `CCOC(=O)CO/N=C(\C(=O)O)c1cc[nH]n1` belongs 128 to 130 °C; to `COc1ccc(-c2csc(NC(=O)CCl)n2)c(OC)c1`, 109 to 111 °C.

`CC(C)(C)OC(=O)N1CC(OCCC(=O)O)C1` had a melting point of 52 to 54 °C. Next, `Nc1nc(Cl)ccc1Cl`: 94 to 96 °C. Molecule `Cc1nc(Cc2nnc(S)o2)cs1` had a melting point of 194 to 196 °C. For `Nc1ccn(CCc2ccccn2)n1`, the melting point lay in the range of 69 to 71 °C. `O=C(Cc1ccc(Cl)cc1)N1CCNCC1` yielded a melting point of 105 to 107 °C.

In turn, `CNc1ncnc2ccccc12` yielded a melting point of 179 to 181 °C. Next, `CC(=O)NCc1ccc(C(=O)O)s1`: 186 to 188 °C; `CC(=O)Nc1ccsc1`: 146 to 148 °C. To `COc1cc(Cl)ccc1S(=O)(=O)Cl` belongs 89 to 91 °C; to `Cc1[nH]ncc1Cl`, 64 to 66 °C; to `NC(=S)CCc1ccccc1`, 82 to 84 °C.

For `COc1ccccc1NC(=O)CC#N`, the melting point lay in the range of 87 to 90 °C.

The molecule `CC(C)CCNS(=O)(=O)Cc1ccc(N)cc1` registered a melting point of 111 to 113 °C. `CC(C)(C)OC(=O)NCc1cccc(O)c1` came in with a melting point of 79 to 81 °C.

On to `CC(C(=O)NC1CCC(C(=O)O)CC1)n1cccn1` (centres undefined), for which the melting point lay within 154 to 156 °C.

`CCn1c(N)c(-c2csc(C)n2)c(=O)[nH]c1=O` had a melting point of 250 to 252 °C. `NC1CCN(c2ccc(Cl)cc2)C1=O` (centres undefined) returned a melting point of 80 to 82 °C.

As for `COC(=O)c1cc(C)cc([N+](=O)[O-])c1`, the melting point was in the range of 80 to 82 °C. Next, `OCCCNc1ccncc1`: 98 to 100 °C.

Molecule `CCn1c(C)nnc1S` yielded a melting point of 129 to 131 °C.
